Assay results from US9078810B2, “Transdermal delivery system” (Acrux DDS Pty Ltd., priority 2007, dated 2015).
Read-outs that look alike come from different tables or passages of the source.

Legend:
[1] = Diclofenac Transdermal Spray finite-dose in vitro diffusion study (Example 6); format: in vitro ADME, human; settings: 24 hr
Procedure: Finite-dose in vitro diffusion studies were undertaken dermatomed skin (Padgett Model B or S electric dermatome set at 500 μm) prepared from excised […], abdominal skin.
These experiments were conducted over 24 hours using flow-through systems with a 1-cm^2 administration area.
Following a 2-h equilibration of the skin with the receptor solution (RS) of phosphate-buffered saline (PBS) pH 7.4, the stratum corneum surface was dosed with a volume of 3.6 μL/cm^2 (unless otherwise indicated) of a test formulation using a positive displacement pipette. The formulation was spread evenly over the skin area using the pipette tip.
The Diclofenac Transdermal Spray formulations were as follows: — • 0.1-2.0% Diclofenac (DIC) diethylamine in Isopropyl alcohol (IPA) [no enhancer] • 0.1-2.0% DIC diethylamine, 5% Octyl Salicylate (OS) in IPA [OS alone] • 0.1-2.0% DIC diethylamine, 2.5% Polyethylene glycol 200 (PEG 200) in IPA [PEG 200 alone] • 0.1-2.0% DIC diethylamine, 5% OS, 2.5% PEG 200 in IPA [OS+PEG 200]
A commercially available Diclofenac gel (approximately 5 mg/cm2) was used as a control. The commercially available gel was applied using a solid cap to simulate the rubbing action required when using the product. Approximately 7 mg gel was applied to the circular surface of a black polypropylene cylindrical cap (Alltech catalogue #98105, diameter 11 mm). […]

[2] = Finite-dose in vitro diffusion study, flow through diffusion cells, 15 μL/cm2 (Example 3); settings: effect of PEG200 (0.5-2.5%) in combination with 5% OS, 2% TES, 2% PVP, 30% IPA in ethanol, 24 hr
Procedure: These experiments were performed over 24 hours using stainless steel, flow through diffusion cells based on those described previously (Cooper, E. R. J. Pharm. Sci. 1984, 73, 1153-1156) except that the cell was modified to increase the diffusion area to 1.0 cm2. The formulations were applied using a finite dose technique (Franz, T. J. Curr. Probl. Dermatol., 1978, 7, 58-68) to mimic clinical dosing conditions at an applied dose volume of 15 μL/cm2. […] The receptor solutions (0.002% w/v NaN3) maintained sink conditions below the skin.
The formulations consisted of:— • Comp 1: 2% Testosterone (TES), 5% Octyl Salicylate (OS), 2% polyvinyl pyrrolidine (PVP), 30% isopropyl alcohol (IPA) in ethanol (95%) • Comp 2: 2% TES, 5% OS, 2% PVP, 30% IPA, 0.5% polyethylene glycol 200 (PEG200) in ethanol (95%) • Comp 3: 2% TES, 5% OS, 2% PVP, 30% IPA, 1.0% PEG200 in ethanol (95%) • Comp 4: 2% TES, 5% OS, 2% PVP, 30% IPA, 2.5% PEG200 in ethanol (95%)

[3] = Finite-dose in vitro diffusion study, flow through diffusion cells, 3.6 μL/cm2 (Example 4); settings: effect of PEG200 (1.0-2.5%) in combination with 5% OS, 5% TES in ethanol (95%), 24 hr
Procedure: These experiments were performed over 24 hours using stainless steel, flow through diffusion cells based on those described previously (Cooper, E. R. J. Pharm. Sci. 1984, 73, 1153-1156) except that the cell was modified to increase the diffusion area to 1.0 cm2. The formulations were applied using a finite dose technique (Franz, T. J. Curr. Probl. Dermatol., 1978, 7, 58-68) to mimic clinical dosing conditions at an applied dose volume of 3.6 μL/cm2. […] The receptor solutions (0.002% w/v NaN3) maintained sink conditions below the skin.

[4] = Estradiol Spray finite-dose in vitro permeation study (Example 7); format: in vitro ADME, human; settings: 24 h
Procedure: Finite-dose in vitro permeation studies were undertaken using dermatomed skin (Padgett Model B or S electric dermatome set at 500 μm) prepared from excised […], abdominal skin.
These experiments were conducted over 24 hours (h) using flow-through systems with a 1-cm2 administration area. […] The receptor solution was maintained at a nominal flow rate of 0.5 mL/h by a peristaltic pump (Watson Marlow 520S Peristaltic Pump with 313A adaptor and 308MC 8 roller pump-head; Stauff Corporation, Australia). The cells were placed on a heater bar to keep the temperature of the skin at 32±1° C.
Following a 2-h equilibration of the skin with the receptor solution (RS; 0.002% sodium azide), the stratum corneum surface was dosed with 3.6 μL/cm^2 of an Estradiol Transdermal Spray formulation using a positive displacement pipette. The formulation was spread evenly over the skin area using the pipette tip.
The Estradiol transdermal spray formulations contained:— • Estradiol (E2)+Octyl Salicylate (OS) in Isopropyl Alcohol IPA • E2+OS+Polyethylene glycol (PEG200) in Isopropyl Alcohol IPA • E2+OS+Polyethylene glycol 400 (PEG400) in IPA

[5] = Finite-dose in vitro diffusion study, Franz-type cells, 24 hours (Example 1); format: in vitro ADME, human; settings: effect of PEG200 in combination with OS vs 5% OS comparison composition, 2.8% NETA, 0.55% E2, 3.6 μL/cm2
Procedure: These experiments were performed over 24 hours using Franz-type cells. Pre-cut skin membranes were mounted as a barrier between the halves of greased (high vacuum grease, BDH) horizontal Franz-type permeation cells in the middle of the receptor chamber of the cell with the stratum corneum facing the donor chamber. The area available for permeation was approximately 0.925 cm2. The receptor chambers of the permeation cells were filled with the receptor phase (Phosphate Buffered Saline pH 7.4) and capped. The permeation cells were immersed in a constant temperature water bath such that the receptor chambers were maintained at 35° C. Receptor chamber contents were continuously agitated by small PTFE-coated magnetic stirrer bars driven by submersible magnetic stirrers. The skin was allowed to equilibrate to temperature with receptor solution for 1 h in the water bath prior to dosing.
The formulations were applied to the skin at a dose of 3.6 μL/cm2. The applied formulation was spread over the skin area using an Eppendorf positive displacement pipette tip without breaking the skin membrane. […]

[6] = format: in vitro ADME, human
Excerpt: The receptor solutions (Phosphate Buffered Saline pH7.4) maintained sink conditions below the skin.
The formulations consisted of:— • Composition (Camp) 1 (Control): 1.35% Nestorone (NES), 0.35% Ethinylestradiol (EE), 5% Octyl Salicylate (OS) in Isopropyl Alcohol (IPA) • Comp 2: 1.35% NES, 0.35% EE, 5% OS, 5% Polyethylene glycol 400 (PEG400) in IPA • Comp 3: 1.35% NES, 0.35% EE, 0.5% Polyethylene glycol (PEG200) in IPA • Comp 4: 1.35% NES, 0.35% EE, 5% OS, 0.5% PEG200 in IPA • Comp 5: 1.35% NES, 0.35% EE, 1% PEG200 in IPA • Comp 6: 1.35% NES, 0.35% EE, 5% OS, 1% PEG200 in IPA • Comp 7: 1.35% NES, 0.35% EE, 2.5% PEG200 in IPA • Comp 8: 1.35% NES, 0.35% EE, 5% OS, 2.5% PEG200 in IPA • Comp 9: 1.35% NES, 0.35% EE, 5% PEG200 in IPA • Comp 10:1.35% NES, 0.35% EE, 5% OS, 5% PEG200 in IPA • Comp 11: 1.35% NES, 0.35% EE, 10% PEG200 in IPA • Camp 12: 1.35% NES, 0.35% EE, 5% OS, 10% PEG200 in IPA

O=C(O)Cc1ccccc1Nc1c(Cl)cccc1Cl [DIC, Diclofenac]
permeation through human epidermis in vitro ([1]; effect of PEG200 in combination with OS, DIC diethylamine, 5% OS, 2.5% PEG 200 in IPA): significantly enhance
permeation through human epidermis in vitro ([1]; effect of PEG 400, either alone or in combination with OS): decrease

C[C@]12CC[C@H]3[C@@H](CCC4=CC(=O)CC[C@@]43C)[C@@H]1CC[C@@H]2O [Testosterone]
permeation through human epidermis in vitro [2]: significantly enhance
permeation through human epidermis in vitro [3]: significantly enhance

C[C@]12CC[C@@H]3c4ccc(O)cc4CC[C@H]3[C@@H]1CC[C@@H]2O [estradiol, Estradiol]
permeation through human skin in vitro ([4]; effect of PEG200 combined with OS in IPA, 3.6 μL/cm^2): synergistically enhanced
permeation through human skin in vitro ([4]; effect of PEG400 alone and PEG400+OS compared with the control formulation): no significant effect
permeation through human epidermis in vitro [5]: significantly enhance

C#C[C@]1(O)CC[C@H]2[C@@H]3CCc4cc(O)ccc4[C@H]3CC[C@@]21C [Ethinylestradiol]
permeation through human epidermis in vitro [6]: inhibit

C#C[C@]1(OC(C)=O)CC[C@H]2[C@@H]3CCC4=CC(=O)CC[C@@H]4[C@H]3CC[C@@]21C [Norethisterone Acetate]
permeation through human epidermis in vitro [5]: significantly enhance

C=C1C[C@H]2[C@@H]3CCC4=CC(=O)CC[C@@H]4[C@H]3CC[C@]2(C)[C@@]1(OC(C)=O)C(C)=O [Nestorone]
permeation through human epidermis in vitro [6]: did not have a significant effect
